According to US10519132B2, “Isocorydine derivatives, preparation method and use thereof” (Lanzhou Institute of Chemical Physics, Chinese Academy of …, priority 2017, dated 2019):
Converted amounts (≈) assume the structure as drawn. Like-named read-outs stand apart in the source and are kept apart here.

Columns and labels:
[1] = test system: human liver cancer cell strain HepG2; assay: MTT growth inhibition on HepG2; assay type: cell-based; conditions: Homo sapiens, read-out: IC50 HepG2;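 further: adherent cells in 96-well plates treated with a concentration series for 24, 48 or 72 h, MTT absorbance read at 490 nm, inhibition computed relative to untreated control wells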
Method: (§2) By using an MTT method, a sample solution to be tested was added to a 96-well plate in which cancer cells were adherently grown. Culturing was performed for a certain period, and the growth inhibition effect of a compound on a human cancer cell strain for primary screening was measured to determine the anti-cancer activity of the compound.
(§3) Cell culture: A cell incubator was set to conditions of 37° C., 5% CO2, and a saturated humidity, cells were cultured under these conditions, and the cell medium was a DMEM complete medium, wherein 10% fetal bovine serum, 100 IU/mL penicillin, and 100 μg/mL streptomycin were comprised.
(§4) The single cell suspension was diluted to 5×10^3/100 μL after counting, inoculated on a 96-well cell culture plate (triplicate), and adherently cultured overnight;
(§5) After 24 h of adhesion, the complete medium was discarded, 100 μL-sample-solutions to be tested having different concentrations were sequentially added to the 96-well plate according to a concentration gradient, and incubations were continued for 24 h, 48 h, and 72 h;
(§6) The culture liquid was discarded, a 0.5 mg/mL MTT diluted working liquid was added, and incubation was performed for 4 h by placing in an incubator;
(§7) The culture liquid was discarded, 100 μL of DMSO was added, low-speed oscillation was performed for 10 min by placing on a shaker, and the spectrophotometric value of each well was measured at a wavelength of 490 nm by using a microplate reader. Statistical analysis was performed and tumor cell growth inhibition rate was calculated according to the equation: Growth inhibition rate=(OD value of control group−OD value of experimental group)/OD value of control group.
(§8) Culturing was performed for a certain period, the growth inhibition effect of a compound on 3 human cancer cell strains for primary screening was measured to determine the anti-cancer activity of the compound, and a growth inhibition curve was plotted.

human brain glioma U251 = assay: MTT growth inhibition on U251; assay type: cell-based; conditions: U-251, after 48 h of action
Method: as §2, §3
(§9) The single cell suspension was diluted to 5×10^3/100 μL after counting, inoculated on a 96-well cell culture plate (triplicate), and adherently cultured overnight; […]
as §7

[2] = test system: human liver cancer cell strain SMMC-7721; assay: MTT growth inhibition on SMMC-7721; assay type: cell-based; conditions: concentration range of 10-40 μg/mL, one of 6 types of tumor cells
Method: as §2, §3, §9, §7

liver cancer cells = assay: MTT growth inhibition on liver cancer cells; assay type: cell-based; conditions: Homo sapiens
Method: as §2, §3, §9, §7

HepG2 cells [3] = assay: Apoptosis induction, Annexin V and PI double-staining, flow cytometry; assay type: cell-based, human; conditions: HepG2, 24 h; sorafenib 4 μg/mL; combination 4 μg/mL sorafenib+5 μg/mL FICD
Method: Different concentrations of FICD were added on the second day, culture was continued for 24 h, cells were collected and washed 3 times with precooled PBS, and adherent cells were digested with trypsin free of EDTA. The solutions were combined, centrifuged, and washed 3 times again with precooled PBS. 400 μL of solution containing 5 μL of V-FITC and 10 μL of PI was added, incubation was performed at room temperature under protection from light, and detection was performed by flowcytometry after 30 min.

HepG2 cells [4] = assay: Cell cycle distribution by flow cytometry; assay type: cell-based, human; conditions: sorafenib 5 μg/mL, FICD 10 μg/mL, combination 5 μg/mL FICD+10 μg/mL sorafenib
Method: 1 mL of 70% precooled (−20° C.) ethanol was added to the cell precipitate, homogenized by pipetting, and fixed at 4° C. overnight. On the second day, HepG2 cells was collected by centrifugation, 2 mL of precooled PBS was added for washing 3 times, 500 μL of PBS containing 50 μg/mL […] (PI) and 100 μg/mL RNaseA was added, and incubation was performed at 4° C. under protection from light for 30 min. Detection was performed on a flow cytometer, and results can be seen in FIG. 9 and FIG. 10.

[5] = test system: C-Myc, Ki-67, CylinD1, β-Catenin protein; assay: Western blotting, protein expression in HepG2 cells; assay type: cell-based, human; conditions: sorafenib 4 μg/mL, high FICD dosage 20 μg/mL, combination 4 μg/mL sorafenib+10 μg/mL FICD
Method: (§1) Method: Gel electrophoresis of protein samples. Gel formulation: All components were added to a small beaker according to a formulation of a separation gel, uniformly mixed with slightly shaking to prevent the generation of bubbles, quickly applied to a seam of a glass plate with a 1 mL pipette, and then blocked with double distilled water to prevent oxidation. After 30 min, the separation gel solidified, the double distilled water thereof was poured off, waster was suctioned with a filter paper, a 5% concentration gel was formulated, TEMED was finally loaded onto the glass plate, and a 1.0 mm comb was inserted into the concentration gel and placed at room temperature for 30 min. The comb was slightly, vertically, and carefully pulled up, various groups of 20 μL protein samples were pipetted with a microsyringe, an equal volume of a loading buffer and an equal volume of a loading buffer containing 3 μL of Marker were separately added to a loading well, an electrophoresis instrument was switched on after electrodes were plugged, gels were run at 75V for 30 min, and the voltage was changed to 120V and gels were run for 2 h when bromophenol blue reaches the separation gel. Membrane transfer: A PVDF membrane having a suitable size was cut according to the size of the gel, placed in a methanol solution for 1 min, lifted, and placed and soaked together with a well cut filter paper in a previously precooled membrane transfer buffer. A sponge pad, three layers of filter paper, a gel, three layers of filter paper, and a sponge pad, in this order from top to bottom, were placed in a membrane transfer tank, and a precooled membrane transfer buffer was then added. Several ice bags were placed circumferentially to prevent an excessively hot external environment, and electrodes were plugged and membrane transfer was performed at a constant current of […] for 2.5 hours. Blocking and incubation of antibodies: A transferred membrane was cut into desired bands, which were placed in a blocking solution of 5% skim milk powder, placed on a shaker, and shaken at room temperature at a low speed for 1 h. A primary antibody was diluted with the blocking solution, a corresponding antibody was pipetted and added to a zip lock bag, the PVDF membrane was then placed in the antibody dilution, bubbles in the zip lock bag were evacuated, and the zip lock bag was sealed and placed in a refrigerator at 4° C. overnight. The membrane was withdrawn from the zip lock bag on the second day, and placed in a clean dish. A TBST solution was added and washed 3 times on a low-speed shaker, 10 min for each time. […]

Vimentin = assay: Western blotting, Vimentin expression in HepG2 cells; assay type: cell-based, human; conditions: FICD experiment (FIG. 12)
Method: as §1

[6] = test system: ascites hepatoma H22 induced solid tumor; assay: In vivo tumor growth inhibition in mice bearing H22; design: species or system white Kunming mice; conditions: for Tumor inhibition rate (%): Table 5
[7] = test system: human cervical cancer Hela cell strains; assay: MTT growth inhibition on Hela; conditions: Homo sapiens, HeLa;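 further: compound exposure of 24, 48 or 72 h in DMEM with 10% fetal bovine serum, MTT absorbance read at 490 nm, inhibition calculated relative to control group OD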
Method: as §2, §3, §4, §5, §6, §7, §8

[8] = test system: human gastric cancer cell strain MGC-803; assay: MTT growth inhibition on MGC-803; conditions: Homo sapiens;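 further: adherent cells exposed to compound over a concentration gradient for 24, 48 and 72 h, MTT absorbance at 490 nm, inhibition relative to untreated control wells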
Method: as §2, §3, §4, §5, §6, §7, §8

For `COc1cc(NC(=O)Nc2ccc(Cl)c(C(F)(F)F)c2)c2c(c1O)-c1c(OC)c(OC)cc3c1C(C2)N(C)CC3` (centres unmarked) [Compound 1], the IC50 ([1]; HepG2, 48 h, after 48 h of action) was 10.1 ± 1.2 µg/mL, the IC50 ([1]; HepG2, Table 1, MTT) was 17.2 µM and the IC50 ([1]; HepG2, Table 2, MTT) was 17.2 µM. The IC50 (human brain glioma U251) was 16.8 ± 0.28 µg/mL (≈ 29.1 µM), the growth inhibition activity [2] was “certain growth inhibition activities” and the IC50 (liver cancer cells) was 10 to 20 µg/mL (≈ 17.3 to 34.6 µM). For the same compound, the apoptosis rate (HepG2 cells [3]) was 11.93%, the “cell cycle distribution compared to the blank control group” value (HepG2 cells [4]) was “cells significantly increased in the G2/M phase and decreased in the G0/G1 phase” and the “expressions of C-Myc, Ki-67, CylinD1 and β-Catenin protein compared to the blank group” value [5] was “significantly reduced”. For the same compound, the Vimentin expression (Vimentin) was “significantly increased”, the “tumor inhibition rates for three administration dosages” value ([6]; Example 25, 150, 100 and 50 mg/Kg, intragastric or intraperitoneal injection) was no less than 40% and the “Tumor inhibition rate (%)” value ([6]; intragastric administration, high dosage 150 mg/Kg) was 53.4%. For the same compound, the “Tumor inhibition rate (%)” value ([6]; intragastric administration, low dosage 50 mg/Kg) was 40.1%, the “Tumor inhibition rate (%)” value ([6]; intragastric administration, middle dosage 100 mg/Kg) was 48.2% and the “Tumor inhibition rate (%)” value ([6]; intraperitoneal injection, high dosage 150 mg/Kg) was 53.0%. The “Tumor inhibition rate (%)” value ([6]; intraperitoneal injection, low dosage 50 mg/Kg) was 40.3%, the “Tumor inhibition rate (%)” value ([6]; intraperitoneal injection, middle dosage 100 mg/Kg) was 46.3% and the IC50 ([7]; 48 h, read-out: IC50 Hela, after 48 h of action) was 18.6 ± 0.29 µg/mL. It also gave an IC50 ([7]; read-out: IC50 HeLa, Table 1, MTT) of 26.5 µM, an IC50 ([7]; read-out: IC50 Hela, Table 2, MTT) of 26.5 µM and an IC50 ([8]; MGC-803, 48 h, read-out: IC50 MGC-803, after 48 h of action) of 15.6 ± 2.4 µg/mL. The IC50 ([8]; MGC-803, read-out: IC50 MGC-803, Table 1, MTT) was 16.6 µM and the IC50 ([8]; MGC-803, read-out: IC50 MGC-803, Table 2, MTT) was 16.6 µM.
